Data taken from patent US10520514B2, “Method for monitoring post-translational modification of protein” (KOREA INSTITUTE OF SCIENCE AND TECHNOLOGY, priority 2017, dated 2019).

Columns and labels:
Type in all cases: biochemical
O-glycosylated tau = test: Nanogap biosensor impedance of microbeads bound to tau protein, reacted with O-GlcNAc (CTD110.6) antibody
Procedure: (§1) A tosylate-treated magnetic bead (Thermo Fisher, Dynabead M-280, diameter 2.8 μm, 14203) and a tau protein binding antibody (abcam, Anti-Tau (Phosphor S262) antibody, ab64193, 50 μl/250 μl) are inserted in a 0.1 M PBS buffer and placed in a 37° C. incubator, and incubated on a roll mixer for 24 hours.
(§2) Next, the magnetic bead bound to the tau protein binding antibody are washed with 0.4% Block ACE (AbD serotec, USA) and blocked with 0.2 M tris buffer. 30 mg/mL of the microbead solution was stored in PBST (Phosphate Buffered Saline with Tween-20, 0.01% Tween-20) containing 0.4% Block Ace.
(§3) The tau protein at a concentration of 5250 ng/mL was diluted 1/10 in various concentrations (0.5 fg/mL to 50 pg/mL) using 0.1% PBST. Tau protein was treated with Thiamet G, an O-glycosylation drug, if necessary.
(§4) The microbead bound to the tau protein binding antibody were diluted to 300 μl/ml using 0.1% PBST, and the tau protein (diluent) and the microbead (diluent) were mixed at a concentration of 1:2 and reacted in a refrigerator for 22 hours.
(§5) Next, the microbead bound to the tau protein is washed twice with 0.1% PBST and washed twice with PBS (Phosphate Buffered Saline). Thereafter, it is diluted to a bead concentration of 60 μl/ml using PBS.
(§6) A microbead (300 μl/ml) bound to tau protein were prepared in the same manner as in Synthesis Example 1.
The microbead is mixed with 10.4 ng of an antibody capable of binding O-glycosylated proteins (Cell signaling, O-GlcNAc (CTD110.6) Mouse mAB, #9875) and reacted in a refrigerator for 22 hours.
The microbead bound to the O-glycosylated tau-binding antibody is washed twice with 0.1% PBST, washed twice with PBS, and diluted to a bead concentration of 60 μl/ml using PBS.
(§7) The samples thus obtained were measured for impedance using a biosensor array (10×10 or 20×20) with an electrode interval of 0.7 μm. […] In addition, impedance change rate is a value (%) obtained by dividing a difference between the impedance Zneg of Neg and the impedance BAT or BAT2 of divided by the impedance Zneg of Neg and multiplied by 100. Impedance change rate difference is defined as a value obtained by subtracting the impedance change rate of BAT from the impedance change rate of BAT2.

phosphorylated tau = test: Nanogap biosensor impedance of microbeads bound to tau protein, reacted with AT8 antibody; conditions: 100 uM Thiamet G, tau protein 0.5 pg/ml
Procedure: as §1, §2, §3, §4, §5, §6
The microbead is mixed with 10 ng of an antibody capable of binding to phosphorylated tau protein (Thermo Fisher, Phospho-Tau (Ser202, Thr205) Antibody (AT8), MN1020) and reacted in a refrigerator for 22 hours.
The microbead bound to the phosphorylated tau-binding antibody is washed twice with 0.1% PBST, washed twice with PBS, and diluted to a bead concentration of 60 μl/ml using PBS.
as §7, with “Impedance change rate difference is defined as a value obtained by subtracting the impedance change rate of BAT from the impedance change rate of BAT2.” left out

tau protein = test: Ratio of impedance change due to phosphorylated tau (P) and O-glycosylated tau (O); conditions: 100 uM Thiamet G; tau protein 0.5 pg/ml
Procedure: as §7

[1] = 10 uM Thiamet G, tau protein 0.5 pg/ml, O-GlcNAc
[2] = 30 uM Thiamet G, tau protein 0.5 pg/ml, O-GlcNAc
[3] = 100 uM Thiamet G, tau protein 0.5 pg/ml, O-GlcNAc

## CCN=C1N[C@@H]2[C@@H](O)[C@H](O)[C@@H](CO)O[C@@H]2S1 [Thiamet G]
O-glycosylated tau; [1]
  BAT-BAT2: 4.3 MΩ
  Impedance change rate difference: 1.62%
O-glycosylated tau; [2]
  BAT-BAT2: 11.6 MΩ
  Impedance change rate difference: 4.39%
O-glycosylated tau; [3]
  BAT-BAT2: 30.5 MΩ
  Impedance change rate difference: 11.54%
  O ((BAT-BAT2)/Neg): 0.1154
O-glycosylated tau; 100 uM Thiamet G, tau protein 0.5 fg/ml
  Impedance change rate difference: 7.5%
O-glycosylated tau; 100 uM Thiamet G, tau protein 5.2 fg/ml
  Impedance change rate difference: 20.4%
O-glycosylated tau; 100 uM Thiamet G, tau protein 52.4 fg/ml
  Impedance change rate difference: 28.9%
O-glycosylated tau; 100 uM Thiamet G, tau protein 524 fg/ml
  Impedance change rate difference: 32.8%
O-glycosylated tau; when the concentration of Thiamet G was increased (Tables 1-1 and 1-2)
  Impedance change rate difference for the microbead combined with O-glycosylated antibody: greatly increased
Phosphorylated tau
  BAT-BAT2: 0.59 MΩ
  Impedance change rate difference: 1.28%
  P ((BAT2-BAT)/Neg): 0.0128
Tau protein
  P/O: 0.111
